Data published in BigSolDB 2.1.

O=C1O[B-]2(OC1=O)OC(=O)C(=O)O2.[Li+]
solubility (mole fraction)
Conditions	293.15 K	303.15 K	313.15 K	323.15 K	333.15 K	343.15 K	353.15 K	363.15 K
in DMF	0.114	0.0838	0.0658	0.0542	0.0404	0.0352	0.0323	0.023
in DMSO	0.148	0.139	0.127	0.113	0.0989	0.0869	0.0774	0.0666
in THF	0.0479	0.0336	0.0269	0.0217	0.0172	–	–	–
in acetonitrile	0.00893	0.00869	0.00803	0.00653	0.00566	0.00297	–	–
in gamma-butyrolactone	0.1	0.0796	0.0544	0.0372	0.0248	0.0163	0.00786	0.00503
in propylene carbonate	0.0393	–	0.0312	0.0214	0.0106	0.00574	0.00218	0.00132
